Patent US10251892B2, “Bicyclic heterocycles as FGFR4 inhibitors” (Incyte Corporation, priority 2015, dated 2019)

Each compound was assayed against FGFR3 enzyme (Homo sapiens (Human), UniProt P22607) (assay: FGFR Enzymatic Assay (peptide phosphorylation, FRET), FGFR3). Conditions: IC50 ratio showing FGFR3 selectivity; pre-incubated for 4 hours.
Assay type: biochemical
Experimental: The inhibitor potency of the exemplified compounds was measured in an enzyme assay that measures peptide phosphorylation using FRET measurements to detect product formation. Inhibitors were serially diluted in DMSO and a volume of 0.5 μL was transferred to the wells of a 384-well plate.
GraphPad prism3 was used to analyze the data.

Sequence of FGFR3 enzyme (P22607 23-806): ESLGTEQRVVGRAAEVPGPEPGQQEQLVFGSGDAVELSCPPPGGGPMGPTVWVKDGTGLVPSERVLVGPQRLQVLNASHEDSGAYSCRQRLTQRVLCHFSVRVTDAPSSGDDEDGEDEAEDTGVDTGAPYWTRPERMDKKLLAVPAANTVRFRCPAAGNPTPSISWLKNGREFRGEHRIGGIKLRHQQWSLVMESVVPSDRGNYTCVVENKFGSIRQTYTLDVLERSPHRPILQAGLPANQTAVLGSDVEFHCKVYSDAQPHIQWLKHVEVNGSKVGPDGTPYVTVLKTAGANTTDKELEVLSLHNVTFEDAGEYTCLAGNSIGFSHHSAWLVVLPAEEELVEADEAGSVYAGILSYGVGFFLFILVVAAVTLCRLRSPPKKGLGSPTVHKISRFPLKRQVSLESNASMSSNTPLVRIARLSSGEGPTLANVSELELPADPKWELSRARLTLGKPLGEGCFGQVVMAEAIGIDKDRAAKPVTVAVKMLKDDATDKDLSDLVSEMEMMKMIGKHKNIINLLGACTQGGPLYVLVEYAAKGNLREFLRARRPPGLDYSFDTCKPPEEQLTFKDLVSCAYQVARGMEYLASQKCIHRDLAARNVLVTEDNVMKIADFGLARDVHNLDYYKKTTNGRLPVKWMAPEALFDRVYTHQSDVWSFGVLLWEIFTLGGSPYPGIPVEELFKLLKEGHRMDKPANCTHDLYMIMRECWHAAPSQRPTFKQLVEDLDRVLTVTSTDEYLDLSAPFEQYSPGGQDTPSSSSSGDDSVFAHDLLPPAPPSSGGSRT

Row | Compound | FGFR1/FGFR3 | FGFR4/FGFR3
1 | COc1cc(OC)c(F)c(N2Cc3cnc(-c4cn(C)nc4C)cc3N(Cc3ccncn3)C2=O)c1F [Example 65, 3-(2,6-difluoro-3,5-dimethoxyphenyl)-7-(1,3-dimethyl-1H-pyrazol-4-yl)-1-(pyrimidin-4-ylmethyl)-3,4-dihydropyrido[4,3-d]pyrimidin-2(1H)-one] | >5 | >10
2 | COc1cc(OC)c(F)c(N2Cc3cnc(-c4cn(C)nc4C)cc3N(c3ccc(F)c(C#N)c3)C2=O)c1F [Example 66, 5-(3-(2,6-difluoro-3,5-dimethoxyphenyl)-7-(1,3-dimethyl-1H-pyrazol-4-yl)-2-oxo-3,4-dihydropyrido[4,3-d]pyrimidin-1(2H)-yl)-2-fluorobenzonitrile] | >5 | >5
3 | COc1cc(OC)c(F)c(N2Cc3cnc(-c4cn(C)nc4C)cc3N(c3cnn(C4CC4)c3)C2=O)c1F [Example 130, 1-(1-cyclopropyl-1H-pyrazol-4-yl)-3-(2,6-difluoro-3,5-dimethoxyphenyl)-7-(1,3-dimethyl-1H-pyrazol-4-yl)-3,4-dihydropyrido[4,3-d]pyrimidin-2(1H)-one] | >5 | >5
4 | COc1cc(OC)c(F)c(N2Cc3cnc(-c4cnn(C5CCN(S(C)(=O)=O)C5)c4)cc3C3(CC3)C2=O)c1F (stereo not shown) [Example 147, 2′-(2,6-difluoro-3,5-dimethoxyphenyl)-6′-(1-(1-(methylsulfonyl)pyrrolidin-3-yl)-1H-pyrazol-4-yl)-1′H-spiro[cyclopropane-1,4′-[2,7]naphthyridin]-3′(2′H)-one] | >10 | >3
5 | CCN1C(=O)N(c2c(F)c(OC)cc(OC)c2F)Cc2cnc(-c3ccc(C4(C#N)CCC4)nc3)cc21 [Example 27, 1-(5-(3-(2,6-difluoro-3,5-dimethoxyphenyl)-1-ethyl-2-oxo-1,2,3,4-tetrahydropyrido[4,3-d]pyrimidin-7-yl)pyridin-2-yl)cyclobutanecarbonitrile] | >10 | >10
6 | COc1cc(OC)c(F)c(N2Cc3cnc(-c4cn(C)nc4C)cc3N(CC3CC3)C2=O)c1F [Example 29, 1-(cyclopropylmethyl)-3-(2,6-difluoro-3,5-dimethoxyphenyl)-7-(1,3-dimethyl-1H-pyrazol-4-yl)-3,4-dihydropyrido[4,3-d]pyrimidin-2(1H)-one] | >1 | >5
7 | COc1cc(OC)c(F)c(N2Cc3cnc(-c4cnn(C5CCN(C(C)=O)C5)c4)cc3C3(CC3)C2=O)c1F (stereo not shown) [Example 150, 6′-(1-(1-acetylpyrrolidin-3-yl)-1H-pyrazol-4-yl)-2′-(2,6-difluoro-3,5-dimethoxyphenyl)-1′H-spiro[cyclopropane-1,4′-[2,7]naphthyridin]-3′(2′H)-one] | >5 | >5
8 | COc1cc(N2C(=O)N(c3c(F)c(OC)cc(OC)c3F)Cc3cnc(-c4cn(C)nc4C)cc32)ccc1C#N [Example 81, 4-(3-(2,6-difluoro-3,5-dimethoxyphenyl)-7-(1,3-dimethyl-1H-pyrazol-4-yl)-2-oxo-3,4-dihydropyrido[4,3-d]pyrimidin-1(2H)-yl)-2-methoxybenzonitrile] | >5 | >10
9 | COc1cc(OC)c(F)c(N2Cc3cnc(-c4cn(CCC#N)nc4C)cc3C3(CC3)C2=O)c1F [Example 156, 3-(4-(2′-(2,6-difluoro-3,5-dimethoxyphenyl)-3′-oxo-2′,3′-dihydro-1′H-spiro[cyclopropane-1,4′-[2,7]naphthyridine]-6′-yl)-3-methyl-1H-pyrazol-1-yl)propanenitrile] | >5 | >1
10 | COc1cc(OC)c(F)c(N2Cc3cnc(-c4cn(C)nc4C)cc3N(c3cc(F)cc(C#N)c3)C2=O)c1F [Example 78, 3-(3-(2,6-difluoro-3,5-dimethoxyphenyl)-7-(1,3-dimethyl-1H-pyrazol-4-yl)-2-oxo-3,4-dihydropyrido[4,3-d]pyrimidin-1(2H)-yl)-5-fluorobenzonitrile] | >5 | >3
11 | COc1cc(OC)c(F)c(N2Cc3cnc(-c4cn(C)nc4C)cc3N(c3ncccn3)C2=O)c1F [Example 105, 3-(2,6-difluoro-3,5-dimethoxyphenyl)-7-(1,3-dimethyl-1H-pyrazol-4-yl)-1-(pyrimidin-2-yl)-3,4-dihydropyrido[4,3-d]pyrimidin-2(1H)-one] | >3 | >5
12 | COc1cc(OC)c(F)c(N2Cc3cnc(-c4cnn(C5(CC#N)CN(C(C)=O)C5)c4)cc3C3(CC3)C2=O)c1F [Example 56, 2-(1-acetyl-3-(4-(2′-(2,6-difluoro-3,5-dimethoxyphenyl)-3′-oxo-2′,3′-dihydro-1′H-spiro[cyclopropane-1,4′-[2,7]naphthyridine]-6′-yl)-1H-pyrazol-1-yl)azetidin-3-yl)acetonitrile] | >5 | >1
13 | COc1cc(OC)c(F)c(N2Cc3cnc(-c4cn(C)nc4C)cc3N(Cc3cncnc3)C2=O)c1F [Example 84, 3-(2,6-difluoro-3,5-dimethoxyphenyl)-7-(1,3-dimethyl-1H-pyrazol-4-yl)-1-(pyrimidin-5-ylmethyl)-3,4-dihydropyrido[4,3-d]pyrimidin-2(1H)-one] | >5 | >5
14 | CCCN1C(=O)N(c2c(F)c(OC)cc(OC)c2F)Cc2cnc(-c3cn(C)nc3C)cc21 [Example 30, 3-(2,6-difluoro-3,5-dimethoxyphenyl)-7-(1,3-dimethyl-1H-pyrazol-4-yl)-1-propyl-3,4-dihydropyrido[4,3-d]pyrimidin-2(1H)-one] | >1 | >5
15 | COc1cc(OC)c(F)c(N2Cc3cnc(-c4cn(C)nc4C)cc3C3(CC3)C2=O)c1F [Example 21, 2′-(2,6-difluoro-3,5-dimethoxyphenyl)-6′-(1,3-dimethyl-1H-pyrazol-4-yl)-1′,2′-dihydro-3′H-spiro[cyclopropane-1,4′-[2,7]naphthyridin]-3′-one] | >5 | –
16 | COc1cc(OC)c(F)c(N2Cc3cnc(-c4cn(C)nc4C)cc3N(C[C@H]3CCOC3)C2=O)c1F [Example 108, (R)-3-(2,6-difluoro-3,5-dimethoxyphenyl)-7-(1,3-dimethyl-1H-pyrazol-4-yl)-1-((tetrahydrofuran-3-yl)methyl)-3,4-dihydropyrido[4,3-d]pyrimidin-2(1H)-one] | >3 | >3
17 | COc1cc(OC)c(F)c(N2Cc3cnc(-c4cn(C)nc4C)cc3N(Cc3ccccn3)C2=O)c1F [Example 94, 3-(2,6-difluoro-3,5-dimethoxyphenyl)-7-(1,3-dimethyl-1H-pyrazol-4-yl)-1-(pyridin-2-ylmethyl)-3,4-dihydropyrido[4,3-d]pyrimidin-2(1H)-one] | >5 | >10
18 | COc1cc(OC)c(F)c(N2Cc3cnc(-c4cn(C)nc4C)cc3N(C(C)C)C2=O)c1F [Example 90, 3-(2,6-difluoro-3,5-dimethoxyphenyl)-7-(1,3-dimethyl-1H-pyrazol-4-yl)-1-isopropyl-3,4-dihydropyrido[4,3-d]pyrimidin-2(1H)-one] | >5 | >5
19 | COc1cc(OC)c(F)c(N2Cc3cnc(-c4cn(C)nc4C)cc3N(c3cncc(C)n3)C2=O)c1F [Example 87, 3-(2,6-difluoro-3,5-dimethoxyphenyl)-7-(1,3-dimethyl-1H-pyrazol-4-yl)-1-(6-methylpyrazin-2-yl)-3,4-dihydropyrido[4,3-d]pyrimidin-2(1H)-one] | >5 | >10
20 | COc1cc(OC)c(F)c(N2Cc3cnc(-c4cn(C)nc4C)cc3N(c3ccc(-c4nnc(C)o4)cc3)C2=O)c1F [Example 115, 3-(2,6-difluoro-3,5-dimethoxyphenyl)-7-(1,3-dimethyl-1H-pyrazol-4-yl)-1-(4-(5-methyl-1,3,4-oxadiazol-2-yl)phenyl)-3,4-dihydropyrido[4,3-d]pyrimidin-2(1H)-one] | >3 | >5
21 | CCNC(=O)c1ccc(-c2cc3c(cn2)CN(c2c(F)c(OC)cc(OC)c2F)C(=O)N3CC)cn1 [Example 175, 5-(3-(2,6-difluoro-3,5-dimethoxyphenyl)-1-ethyl-2-oxo-1,2,3,4-tetrahydropyrido[4,3-d]pyrimidin-7-yl)-N-ethylpicolinamide] | >10 | >5
22 | COc1cc(OC)c(F)c(N2Cc3cnc(-c4cn(C)nc4C)cc3N(c3ccc4nc(C)oc4c3)C2=O)c1F [Example 75, 3-(2,6-difluoro-3,5-dimethoxyphenyl)-7-(1,3-dimethyl-1H-pyrazol-4-yl)-1-(2-methylbenzo[d]oxazol-6-yl)-3,4-dihydropyrido[4,3-d]pyrimidin-2(1H)-one] | >5 | >3
23 | CCN1C(=O)N(c2c(F)c(OC)cc(OC)c2F)Cc2cnc(-c3ccc(C(N)=O)nc3)cc21 [Example 184, 5-(3-(2,6-difluoro-3,5-dimethoxyphenyl)-1-ethyl-2-oxo-1,2,3,4-tetrahydropyrido[4,3-d]pyrimidin-7-yl)picolinamide] | >5 | >5
24 | COc1cc(OC)c(F)c(N2Cc3cnc(-c4ccc(C5(C#N)CCC5)nc4)cc3N(c3ccncn3)C2=O)c1F [Example 135, 1-(5-(3-(2,6-difluoro-3,5-dimethoxyphenyl)-2-oxo-1-(pyrimidin-4-yl)-1,2,3,4-tetrahydropyrido[4,3-d]pyrimidin-7-yl)pyridin-2-yl)cyclobutanecarbonitrile] | >5 | >10
25 | CNC(=O)c1ccc(CN2C(=O)N(c3c(F)c(OC)cc(OC)c3F)Cc3cnc(-c4cn(C)nc4C)cc32)cc1 [Example 62, 4-((3-(2,6-difluoro-3,5-dimethoxyphenyl)-7-(1,3-dimethyl-1H-pyrazol-4-yl)-2-oxo-3,4-dihydropyrido[4,3-d]pyrimidin-1(2H)-yl)methyl)-N-methylbenzamide] | >10 | >5
